Experimental data taken from patent publication US20080279936A1, “Estradiol metabolites for reduction of endothelin production” (The University of Pittsburgh, priority 2001, published 2008).
Like-named read-outs stand apart in the source and are kept apart here.

Legend:
[1] = test system: mitogen-activated protein kinase (MAPK) activity in PCAECs; assay: FCS-induced MAPK activity in PCAECs; assay type: cell-based, porcine
Source text: Hearts from female pigs were obtained from a local slaughter house and placed in ice-cold oxygenated DMEM (Gibco, Rockville, Md. now Invitrogen, Carlsbad Calif., hereinafter “Gibco”) containing antibiotics (Gibco). The epicardial coronary arteries were isolated, and the fat and connective tissue were removed. Endothelial cells were isolated by collagenase/dispase digestion (Ohbayashi, A., et al., Biochem. Brophys. Res. Commun. 202:504 (1994), the disclosure of which is incorporated herein be reference (“Ohbayashi, et al.”)). […] The purity of the cultures, which was characterized by immunostaining with factor VIII antigen (Sigma, St. Louis, Mo.) and by assaying the preferential uptake of the fluorescent probe Dil-acetylated low density lipoprotein (Biomedical Technologies, Inc., Stoughton, Mass.), (Ohbayashi, et al.) was 98%. Cells were passaged by trypsinization, and cells in second and third passage were used for all experiments in this example. […] Some cells were pretreated for 1 hour with ICI182780 before treatment with the test agents. After stimulation, the cells were washed with ice-cold PBS and extraction buffer (50 mmol/L β-glycerophosphate, 1.5 mmol/L EGTA, 1 mmol/L dithiothreitol, 100 μmol/L Na3VO4, 10 μg/mL aprotinin, 5 μg/mL pepstatin, […] leupeptin, and 1 mmol/L benzamidine) (all from Sigma), scraped off the plates, and sonicated for 20 seconds in 0.5 mL of extraction buffer. The extracts were collected, the cytosolic fractions were separated by centrifuging the extracts at 100,000×g for 20 minutes at 4° C., and the supernatants were diluted to a concentration of 1 mg protein/mL and stored at -70° C. for mitogen-activated protein kinase (“MAPK”) activity assays. The MAPK activity in the cytosolic extracts was quantified as described by Dubey, R. K., et al., Arterioscler. Thromb. Vasc. Biol. 20:964 (2000), the disclosure of which is incorporated herein by reference.

[2] = test system: endothelin-1 (ET-1) synthesis in porcine coronary artery endothelial cells (PCAECs); assay: Stimulated (FCS, angiotensin II, thrombin, TNFα) ET-1 release into the medium by PCAECs (ELISA); assay type: cell-based; set-up: induction of ET-1 secretion (percentage increase vs vehicle-treated controls): dose or concentration left out as unconfirmed; details: for inhibition of FCS-induced ET-1 secretion / inhibition of TNFα-induced ET-1 secretion / inhibition of angiotensin II-induced ET-1 secretion / inhibition of thrombin-induced ET-1 secretion / inhibition at 0.001 µM: 1 nmol/L; for reversal by ICI182780 of the compound's inhibitory effect on FCS-stimulated ET-1 secretion: ICI182780 50 μmol/L; for effectiveness in inhibiting basal and stimulated ET-1 secretion compared with estradiol: order of potency 2-methoxyestradiol>2-hydroxyestradiol>estradiol; for effect on FCS-induced ET-1 synthesis: 10 nmol/L; for inhibition at 0.001 µM: Sus scrofa, Endothelial cell; for induction of ET-1 secretion (percentage increase vs vehicle-treated controls): stimulus alone
Source text: (§1) Hearts from female pigs were obtained from a local slaughter house and placed in ice-cold oxygenated DMEM (Gibco, Rockville, Md. now Invitrogen, Carlsbad Calif., hereinafter “Gibco”) containing antibiotics (Gibco). The epicardial coronary arteries were isolated, and the fat and connective tissue were removed. Endothelial cells were isolated by collagenase/dispase digestion (Ohbayashi, A., et al., Biochem. Brophys. Res. Commun. 202:504 (1994), the disclosure of which is incorporated herein be reference (“Ohbayashi, et al.”)). The isolated cells were washed in DMEM/F12 medium (Gibco) supplemented with 10% fetal calf serum (“FCS”) (HyClone Laboratories, Logan, Utah) and endothelial cell growth supplement (Clonetics, Walkersville, Md.), and cells were grown to confluence under standard tissue culture conditions. The purity of the cultures, which was characterized by immunostaining with factor VIII antigen (Sigma, St. Louis, Mo.) and by assaying the preferential uptake of the fluorescent probe Dil-acetylated low density lipoprotein (Biomedical Technologies, Inc., Stoughton, Mass.), (Ohbayashi, et al.) was 98%. Cells were passaged by trypsinization, and cells in second and third passage were used for all experiments in this example.
(§2) To study the effects of estradiol and its metabolites on ET-1 synthesis in porcine coronary artery endothelial cells (“PCAECs”) (Gibco), confluent monolayers of PCAECs were washed twice with HBSS (Gibco) and treated with DMEM/F12 (gibco) supplemented with 0.4% bovine serum albumin (BSA) containing or lacking 0.001 to 1 μmol/L of estradiol, 2-hydroxyestradiol, or 2-methoxyestradiol (Steraloids, Newport, R.I.). […] The supernatants were collected for ET-1 analysis, and the samples were frozen at −70° C. until analyzed. ET-1 levels were measured with the BIOTRAK™ (Amersham Pharmacia Biotech Europe Gmbh, Dubendorf, Switzerland) high-sensitivity endothelin-1 human ELISA system.
Cells were also treated as above in the presence and absence of the estradiol receptor (“ER”) antagonist, ICI182780 (50 μmol/L; Tocris Cookson Ltd, Ballwin, Mo.). To analyze whether the inhibitory effects of estradiol were mediated by means of ER-β, the effects of genistein (0.001 to 10 μmol/L) (Sigma) were investigated. To evaluate whether the effects of estradiol were mimicked by various clinically used estrogens, the cells were treated as above, in the presence and absence of ICI182780, with 10 nmol/L of estradiol valerate, estradiol cypionate, estradiol benzoate, 17α-estradiol, estrone, estriol or estrone sulfate (all from Sigma), and the ET-1 synthesis in response to FCS (2.5%) was analyzed.

[3] = test system: endothelin-1 (ET-1) synthesis in porcine coronary artery endothelial cells (PCAECs); assay: Basal ET-1 release into the medium by PCAECs (ELISA); assay type: cell-based; details: for effect on basal ET secretion: 2 nmol/L, PCAECs incubated 4, 8, 12 and 24 hours
Source text: as §1, §2
To analyze the effects of estradiol and its metabolites on the basal synthesis of ET-1, cells were pretreated with or without the various above-listed agents and with and without ICI182780 for 24 hours and were fed fresh DMEM/F12 supplemented with 0.4%; BSA (Sigma) and the respective treatments. The supernatants were collected after 4, 8, 12, and 24 hours and the ET-1 levels were analyzed.

[4] = 1 nmol/L, pretreated 24 hours, FCS 2.5%
[5] = angiotensin II 100 nmol/L, 4 hours

## C[C@]12CC[C@@H]3c4cc(O)c(O)cc4CC[C@H]3[C@@H]1CC[C@@H]2O [2-hydroxyestradiol, estra-1,3,5 (10)-triene-2,3,17-triol (17β)]
[1]; [4]
  inhibition of FCS-induced MAPK activity: 34±4%
[1]; pretreated 24 hours, FCS 2.5%
  potency in inhibiting FCS-induced MAPK activity compared with estradiol: more potent
[2]; FCS 2.5%, 4 hours
  inhibition of FCS-induced ET-1 secretion: 31%
  reversal by ICI182780 of the compound's inhibitory effect on FCS-stimulated ET-1 secretion: not
[2]; TNFα 10 ng/mL, 4 hours
  inhibition of TNFα-induced ET-1 secretion: 35%
[2]; [5]
  inhibition of angiotensin II-induced ET-1 secretion: 33%
[2]; thrombin 4 U/mL, 4 hours
  inhibition of thrombin-induced ET-1 secretion: 40%
[2]
  effectiveness in inhibiting basal and stimulated ET-1 secretion compared with estradiol: more effective
[3]
  effect on basal ET secretion: inhibited

## COc1cc2c(cc1O)CC[C@@H]1[C@@H]2CC[C@]2(C)[C@@H](O)CC[C@@H]12 [2-methoxyestradiol, estra-1,3,5 (10)-triene-2-methoxy-3,17-diol (17β)]
[1]; [4]
  inhibition of FCS-induced MAPK activity: 46±4.7%
[1]; pretreated 24 hours, FCS 2.5%
  potency in inhibiting FCS-induced MAPK activity compared with estradiol: more potent
[2]; FCS 2.5%, 4 hours
  inhibition of FCS-induced ET-1 secretion: 44%
  reversal by ICI182780 of the compound's inhibitory effect on FCS-stimulated ET-1 secretion: not
[2]; TNFα 10 ng/mL, 4 hours
  inhibition of TNFα-induced ET-1 secretion: 56%
[2]; [5]
  inhibition of angiotensin II-induced ET-1 secretion: 39%
[2]; thrombin 4 U/mL, 4 hours
  inhibition of thrombin-induced ET-1 secretion: 46%
[2]
  effectiveness in inhibiting basal and stimulated ET-1 secretion compared with estradiol: more effective
[3]
  effect on basal ET secretion: inhibited

## C[C@]12CC[C@@H]3c4ccc(O)cc4CC[C@H]3[C@@H]1CC[C@H]2O [17α-estradiol]
[2]; FCS 2.5%, 4 hours
  effect on FCS-induced ET-1 synthesis: unable to lower ET-1 secretion

## O=c1c(-c2ccc(O)cc2)coc2cc(O)cc(O)c12 [Genistein, genistein]
[2]; FCS 2.5%-stimulated, 4 hours, tested 0.001 to 10 μmol/L
  concentrations at which inhibitory effects on ET-1 secretion were observed: ≥ 1 µmol/L
[2]; FCS 2.5%, 4 hours
  reversal by ICI182780 of the compound's inhibitory effect on FCS-stimulated ET-1 secretion: not reversed

## C[C@]12CC[C@@H]3c4ccc(O)cc4C[C@@H](CCCCCCCCC[S+]([O-])CCCC(F)(F)C(F)(F)F)[C@H]3[C@@H]1CC[C@@H]2O (some centres unmarked) [ICI182780]
[2]; 50 μmol/L
  effect of compound alone on basal or FCS-stimulated ET-1 synthesis: did not influence

## COc1cccc(-c2cc(=O)c3ccccc3o2)c1N [PD98059]
[1]; growth-arrested cells, FCS 2.5% for 10 minutes, unstimulated 0.187, PD98059 at 10 μmol/L
  MAPK activity: 0.7 μmol/min/mg protein

## C[C@]12CC[C@@H]3c4ccc(OC(=O)c5ccccc5)cc4CC[C@H]3[C@@H]1CC[C@@H]2O [estradiol benzoate]
[2]; FCS 2.5%, 4 hours
  effect on FCS-induced ET-1 synthesis: inhibited
  reversal by ICI182780 of the compound's inhibitory effect on FCS-stimulated ET-1 secretion: reversed

## C[C@]12CC[C@@H]3c4ccc(O)cc4CC[C@H]3[C@@H]1CC[C@@H]2OC(=O)CCC1CCCC1 [estradiol cypionate]
[2]; FCS 2.5%, 4 hours
  effect on FCS-induced ET-1 synthesis: inhibited
  reversal by ICI182780 of the compound's inhibitory effect on FCS-stimulated ET-1 secretion: reversed

## CCCCC(=O)O[C@H]1CC[C@H]2[C@@H]3CCc4cc(O)ccc4[C@H]3CC[C@]12C [estradiol valerate]
[2]; FCS 2.5%, 4 hours
  effect on FCS-induced ET-1 synthesis: inhibited
  reversal by ICI182780 of the compound's inhibitory effect on FCS-stimulated ET-1 secretion: reversed

## C[C@]12CC[C@@H]3c4ccc(O)cc4CC[C@H]3[C@@H]1CC[C@@H]2O [estradiol, 17β-estradiol]
[1]; ICI182780 50 μmol/L pretreatment, compound 10 nmol/L
  reversal by ICI182780 of the compound's inhibitory effect on FCS-induced MAPK activity: completely reversed
[1]; Sus scrofa, 1 nmol/L, pretreated 24 hours, FCS 2.5%
  inhibition at 0.001 µM: 19 ± 2.6%
[2]; 1 nmol/L compound, FCS 2.5%, 4 hours, control 138±16%
  ET-1 secretion induced in response to FCS (percentage increase) in presence of compound: 82±8%
[2]; 1 nmol/L compound, TNFα 10 ng/mL, 4 hours, control 120±8%
  ET-1 secretion induced in response to TNFα (percentage increase) in presence of compound: 68±5%
[2]; 1 nmol/L compound, angiotensin II 100 nmol/L, 4 hours, control 116±7%
  ET-1 secretion induced in response to angiotensin II (percentage increase) in presence of compound: 73±6%
[2]; 1 nmol/L compound, thrombin 4 U/mL, 4 hours, control 98±6%
  ET-1 secretion induced in response to thrombin (percentage increase) in presence of compound: 53±4%
[2]; FCS 2.5%, 4 hours
  reversal by ICI182780 of the compound's inhibitory effect on FCS-stimulated ET-1 secretion: completely blocked
[2]; FCS 2.5%, 4 hours, read-out: inhibition of FCS-induced ET-1 secretion
  inhibition at 0.001 µM: 22%
[2]; TNFα 10 ng/mL, 4 hours, read-out: inhibition of TNFα-induced ET-1 secretion
  inhibition at 0.001 µM: 26%
[2]; angiotensin II 100 nmol/L, 4 hours, read-out: inhibition of angiotensin II-induced ET-1 secretion
  inhibition at 0.001 µM: 20%
[2]; thrombin 4 U/mL, 4 hours, read-out: inhibition of thrombin-induced ET-1 secretion
  inhibition at 0.001 µM: 24%
[3]
  effect on basal ET secretion: inhibited
[3]; Sus scrofa, Endothelial cell, 8 h, read-out: inhibition of basal synthesis of ET-1
  inhibition at 0.002 µM: 19 ± 2%

## C[C@]12CC[C@@H]3c4ccc(O)cc4CC[C@H]3[C@@H]1C[C@@H](O)[C@@H]2O [estriol]
[2]; FCS 2.5%, 4 hours
  effect on FCS-induced ET-1 synthesis: unable to lower ET-1 secretion

## TNFα
[2]; 4 hours
  induction of ET-1 secretion (percentage increase vs vehicle-treated controls): 120±8%

## angiotensin II [stimulatory agent for ET-1 secretion]
[2]; 4 hours
  induction of ET-1 secretion (percentage increase vs vehicle-treated controls): 116±7%

## estrone sulfate
[2]; FCS 2.5%, 4 hours
  effect on FCS-induced ET-1 synthesis: unable to lower ET-1 secretion

## thrombin
[2]; 4 hours
  induction of ET-1 secretion (percentage increase vs vehicle-treated controls): 98±5%
